In the first assay the test system is tau paired-helical filaments (PHFs). The experiment in a line: Cryo-EM co-structure with Alzheimer's disease tau paired helical filaments. The assay is classed as binding, human. The note with it: AD tau PHF incubated with 20 uM GTP-1, cryo-EM. How it is done: Samples were incubated with 20 uM GTP-1 prior to vitrification. […] The micrograph images and their 2D classification reveal well-resolved filaments primarily in the PHF conformation, with crossover distances ranging from 700-800 Å. A minor population of straight filaments (SF) was also identified; however, further structural characterization was not feasible due to limited abundance. […] The PHF structure is comprised of two protofilaments related by two-fold symmetry with a 2.37 Å rise and 179.450 twist, consistent with previously reported structures of PHFs prepared from AD brains (13, 15). […]
Cryo-EM sample preparation and data collection. […] For the tau PHF, 3 μL of purified filaments mixed with GTP-1 was added to a glow-discharged 200 mesh 1.2/1.3R Au Quantifoil grid for 10 seconds before blotting for 2 seconds, and then a second 3 μL aliquot was added for 3 seconds and blotted for 1 second before being plunge frozen in liquid ethane using a FEI Vitrobot Mark IV (Thermo Fisher Scientific). For the synuclein ligands, 3 μL of purified filaments mixed with compound was added to a 200 mesh 1.2/1.3R Au Quantifoil grid coated with a 2 nm thick layer of carbon, which had not been glow discharged. […]
As for `[2H]C([2H])([18F])CC1CCN(c2ccn3c(n2)nc2ccccc23)CC1` [GTP-1], the “binding site on tau filament” value is given as “bound to a solvent exposed cleft (residues 351-360)”.

The next assay has as its target T1, α-synuclein fibrils isolated from an MSA patient sample (Homo sapiens, UniProt P37840).
T1 construct: fresh-frozen tissue from the cerebellum of patients clinically and neuropathologically diagnosed with MSA; from tissue; host or cells: cerebellum of MSA patients (sarkosyl-insoluble fraction)
The experiment in a line: Cryo-EM co-structure with α-synuclein fibrils from MSA patient samples. The assay is classed as binding. The note with it: fibrils from MSA patient sample, cryoelectronic microscopy. The procedure: MSA filament purification. Filament purification was based on Schweigenhauser et al., 2020^2. Briefly, 1-2 g of fresh-frozen tissue from the cerebellum of patients clinically and neuropathologically diagnosed with MSA was homogenized at 20 mL/g of tissue in 10 mM Tris-HCl (pH 7.4), 800 mM NaCl, 1 mM EGTA, and 10% sucrose. A final concentration of 1% N-laurosarcosinate (w/v) was added to the homogenates, and these mixtures were incubated at 37° C. for 30 minutes. Homogenates were then centrifuged at 10,000 g for 10 minutes, and the supernatant was kept and then centrifuged at 100,000 g for 20 minutes. The pellets were resuspended at 500 μL/g of frozen tissue in 10 mM Tris-HCl (pH 7.4), 800 mM NaCl, 1 mM EGTA, and 10% sucrose. This was followed by another centrifugation at 3,000 g for 5 minutes. The supernatant was kept and diluted threefold with 50 mM Tris-HCl (pH 7.4), 150 mM NaCl, 10% sucrose, and 2% sarkosyl, followed by another centrifugation at 150,000 g for 1 hour. The final pellet resuspended in 30 mM Tris-HCl (pH 7.4) at a concentration of […] frozen tissue.
Cryo-EM sample preparation and data collection. Purified frontal cortex and cerebellum tissue was incubated with 20 μM ligand for 45 minutes prior to freezing. For the tau PHF, 3 μL of purified filaments mixed with GTP-1 was added to a glow-discharged 200 mesh 1.2/1.3R Au Quantifoil grid for 10 seconds before blotting for 2 seconds, and then a second 3 μL aliquot was added for 3 seconds and blotted for 1 second before being plunge frozen in liquid ethane using a FEI Vitrobot Mark IV (Thermo Fisher Scientific). For the synuclein ligands, 3 μL of purified filaments mixed with compound was added to a 200 mesh 1.2/1.3R Au Quantifoil grid coated with a 2 nm thick layer of carbon, which had not been glow discharged. After 30 seconds, grids were blotted for 7.5 seconds at room temperature and 100% humidity. Grids were plunge frozen in liquid ethane using a FEI Vitrobot Mark IV. […] A defocus range of 0.8 to 1.8 μm was used with a total exposure time of 2.024 seconds fractionated into 0.025 seconds subframes. The total dose for each movie was 46 electrons/Å^2. Movies were motion-corrected using MotionCor2^3 in Scipion^4 and were Fourier cropped by a factor of 2 to a final pixel size of 0.834 Å per pixel.
Image processing. All image processing was done in RELION 4^5, and the same workflow was used for each dataset. Dose-weighted summed micrographs were imported into RELION 4. The contrast transfer function was estimated using CTFFIND-4.1^6. Filaments were manually picked and then segments were extracted with a box size of 900 pixels downscaled to 300 pixels. Contaminants and segments contributing to straight filaments were separated out using reference-free 2D class averaging. The remaining segments were re-extracted with a box size of 288 pixels without downscaling. An initial model was generated from a cylinder in RELION. One or more rounds of 3D classification with image alignment were performed, with helical rise and […] parameters fixed to eliminate obvious junk particles. One or more rounds of 3D auto-refinement was run using the best map from 3D classification low-pass filtered to 10 Å, allowing rise and twist parameters to vary. Maps were sharpened using the standard post-processing procedures in RELION.
Model building, refinement, and analysis. Prior to ligand placement, a single strand of a previously solved MSA or tau PHF filament stutr^2 (PDB: 6XYQ) was refined against the density using Phenix^7. Refinement of the ligand binding pocket was done in COOT^8. Ligands were placed by hand in the density using Chimera^9. This model was then translated to give a stack spanning 5 rungs.
As to `Cc1nccc2cc(-c3nc(-n4ccc5cccnc5c4=O)c(-c4ccc(C(F)(F)F)cc4)o3)ccc12` [compound 427], the “co-structure of supramolecular polymeric inhibitor with α-synuclein fibrils” value was “bound to fibrils isolated from an MSA patient sample”. The same measure, in the same setting: in the case of `CNc1nc(=O)n(-c2nc(-c3cccc(C)c3)oc2-c2ccc(Cl)c(F)c2)cc1F` [Compound 83, 1-(5-(4-chloro-3-fluorophenyl)-2-(m-tolyl)oxazol-4-yl)-5-fluoro-4-(methylamino)pyrimidin-2 (1H)-one] it was “bound to fibrils isolated from an MSA patient sample”; in that of `CNc1nc(=O)n(-c2nc(-c3cc(C)cc(C)n3)oc2-c2ccc(F)c(F)c2)cc1F` [compound 294], “bound to fibrils isolated from an MSA patient sample”. Same read-out and setting: as for `CNc1nc(=O)n(-c2nc(-c3cccc(Cl)c3)oc2-c2ccc(Cl)c(F)c2)cc1F` [Compound 125, 1-(5-(4-chloro-3-fluorophenyl)-2-(3-chlorophenyl)oxazol-4-yl)-5-fluoro-4-(methylamino)pyrimidin-2 (1H)-one], the entry is “bound to fibrils isolated from an MSA patient sample”. Still for that read-out and setting: as for `CNC(=O)c1ncc2c(-c3ccnc(C(C)(F)F)n3)nn(-c3ccc(Cl)cc3)c2n1` [Compound 22, 1-(4-chlorophenyl)-3-(2-(1,1-difluoroethyl)pyrimidin-4-yl)-N-methyl-1H-pyrazolo[3,4-d]pyrimidine-6-carboxamide], the entry is “bound to fibrils isolated from an MSA patient sample”; as for `O=c1nc2c(ccn2C(F)(F)F)cn1-c1nc(-c2ccnc(C3CC3)n2)oc1-c1ccc(F)cc1` [compound 293], “bound to fibrils isolated from an MSA patient sample”; as for `O=C(Cn1cc(-c2ccoc2)c(=O)c2ccc(N3CCCC3)cc21)Nc1ccccc1C(F)(F)F` [Compound 149, 2-[3-(furan-3-yl)-4-oxo-7-(pyrrolidin-1-yl)-1,4-dihydroquinolin-1-yl]-N-[2-(trifluoromethyl)phenyl]acetamide], “bound to fibrils isolated from an MSA patient sample”.

Staying with this assay, now noted: α-synuclein fibril from an MSA patient, SEQ ID NO: 9.
In the case of `CNC(=O)c1ncc2c(-c3ccnc(C(C)(F)F)n3)nn(-c3ccc(Cl)cc3)c2n1` [Compound 22, 1-(4-chlorophenyl)-3-(2-(1,1-difluoroethyl)pyrimidin-4-yl)-N-methyl-1H-pyrazolo[3,4-d]pyrimidine-6-carboxamide], the “binding site on α-synuclein fibril” value is “bound to residues 86-99”.

For the origin of these results see patent US20240199604A1, “SUPRAMOLECULAR POLYMER THERAPEUTICS AND DIAGNOSTICS” (The Regents of the University of California, priority 2022, published 2024).
